Data: patent US10294202B2, “Pyrrolidinones as herbicides” (FMC Corporation, priority 2013, dated 2019)

Key:
soybean = assay: Test E preemergence herbicide test; assay type: in vivo, Glycine max; set-up: key: 0 = no effect, 100 = complete control
Summary of the method: (§1)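 Response is a 0–100 visual rating against controls (100 = complete control), taken 21 days after preemergence treatment of seeded silt loam soil held in a greenhouse.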

lambsquarters = assay: Test E preemergence herbicide test; assay type: in vivo, Chenopodium album; set-up: key: 0 = no effect, 100 = complete control
Summary of the method: as §1

foxtail, green = assay: Test E preemergence herbicide test; assay type: in vivo, Setaria viridis; set-up: key: 0 = no effect, 100 = complete control
Summary of the method: as §1

ryegrass, Italian = assay: Test D pre-/postemergence herbicide test; assay type: in vivo, Lolium multiflorum; conditions: Preemergence, scale 0 to 100 (0 no effect, 100 complete control)
Summary of the method: (§2)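 Test chemicals in a non-phytotoxic solvent with surfactant were applied preemergence to seeds in silt loam soil and postemergence to plants at 2-18 cm (1- to 4-leaf stage) in peat-based medium. After 7 to 21 days in a controlled environment, injury was rated visually versus controls on a 0-100 scale (100 = complete control).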

galium = assay: Test D pre-/postemergence herbicide test; assay type: in vivo, Galium aparine; conditions: Preemergence; for Plant response rating, Galium: scale 0 to 100 (0 no effect, 100 complete control); for Plant response rating: 250 g ai/ha, Galium, scale 0 to 100
Summary of the method: as §2

crabgrass, large = assay: Test E preemergence herbicide test; assay type: in vivo, Digitaria sanguinalis; set-up: key: 0 = no effect, 100 = complete control
Summary of the method: as §1

| Structure (SMILES) | Plant response rating, Soybean (soybean; 31 g ai/ha) | Plant response rating, Soybean (soybean; 62 g ai/ha) | Plant response rating, Soybean (soybean; 125 g ai/ha) | Plant response rating, Lambsquarters (lambsquarters; 31 g ai/ha) | Plant response rating, Lambsquarters (lambsquarters; 62 g ai/ha) | Plant response rating, Lambsquarters (lambsquarters; 125 g ai/ha) | Plant response rating, Lambsquarters (lambsquarters; 250 g ai/ha) | Plant response rating, Foxtail, Green (foxtail, green; 31 g ai/ha) | Plant response rating, Foxtail, Green (foxtail, green; 62 g ai/ha) | Plant response rating, Foxtail, Green (foxtail, green; 125 g ai/ha) | Plant response rating, Foxtail, Green (foxtail, green; 250 g ai/ha) | Plant response rating, Ryegrass, Italian (ryegrass, Italian; 62 g ai/ha) | Plant response rating, Ryegrass, Italian (ryegrass, Italian; 125 g ai/ha) | Plant response rating, Ryegrass, Italian (ryegrass, Italian; 31 g ai/ha) | Plant response rating, Ryegrass, Italian (ryegrass, Italian; 250 g ai/ha) | Plant response rating, Galium (galium; 62 g ai/ha) | Plant response rating, Galium (galium; 125 g ai/ha) | Plant response rating, Galium (galium; 31 g ai/ha) | Plant response rating (galium) | Plant response rating, Crabgrass, Large (crabgrass, large; 31 g ai/ha) | other results |
| --- | --- | --- | --- | --- | --- | --- | --- | --- | --- | --- | --- | --- | --- | --- | --- | --- | --- | --- | --- | --- | --- |
| O=C1NC[C@H](c2cccc(C(F)(F)F)c2)[C@H]1C(=O)Nc1ccccc1F [Compound 204, (3R,4S)—N-(2-fluorophenyl)-2-oxo-4-[3-(trifluoromethyl)phenyl]-3-pyrrolidinecarboxamide] | 0 | 0 | 0 | 98 | 98 | 90 | 65 | 40 | 98 | 95 | 98 | 15 | 45 | 5 | 60 | 10 | 10 | 0 | 25 | 95 | Plant response rating, Crabgrass, Large (crabgrass, large; 62 g ai/ha): 98; Plant response rating, Crabgrass, Large (crabgrass, large; 125 g ai/ha): 98; Plant response rating, Crabgrass, Large (crabgrass, large; 250 g ai/ha): 98 |
| O=C1NC[C@H](c2cccc(C(F)(F)F)c2)[C@H]1C(=O)Nc1cccc(F)c1F [Compound 206] | 0 | 0 | 0 | 35 | 65 | 95 | 98 | 80 | 98 | 98 | 98 | 30 | 55 | 35 | 75 | 40 | 50 | 10 | 80 | 98 | Plant response rating, Soybean (soybean; 250 g ai/ha): 0; Plant response rating, Crabgrass, Large (crabgrass, large; 62 g ai/ha): 98; Plant response rating, Crabgrass, Large (crabgrass, large; 125 g ai/ha): 98; Plant response rating, Crabgrass, Large (crabgrass, large; 250 g ai/ha): 100 |
